This is an account of results in patent US12409112B2, “Pressurized nanoemulsion” (Biofrontera Bioscience GmbH, priority 2023, dated 2025).

Series [1] is described as follows: ALA content over storage time in BF200 with PX=2%. It counts as physicochemical. The conditions noted are these: BF200 with PX=2% and 3% ALA. Here is the method: Nanoemulsion formulations BF200 PX=2% glass and BF200 PX=2% foam were prepared as described in Example 5. The nanoemulsion formulations were stored at 25° C. and 2-8° C. The content of ALA was determined at 0 (starting point) and various time points during the 36 months storage period.

For series [2] the following is noted: room temperature; cited from earlier work.
A short description of series [3]: TC content over storage time in BF220 with PX=4%. It is filed as physicochemical. The conditions noted are these: BF220 with PX=4% and 0.1% TC. Here is the method: Nanoemulsion formulations BF220 TC=0.1% glass and BF220 TC=0.1% foam were prepared as described in Example 6. The nanoemulsion formulations were stored at 2-8° C. The content of TC was determined at 0 (starting point) and various time points during the 36 months storage period.

The conditions of series [4]: cited from earlier work.

Take `NCC(=O)CCC(=O)O` [ALA, 5-aminolevulinic acid]: the “Preservation of API content, pressurized cans versus conventional storing units (glass vials)” value in series [1] (25° C. and 2-8° C., all conditions) is “better”. Also, the ALA content result in series [1] (after 36 months storage at 2-25° C.) is recorded as “at least 90%”.

On to `C=CC[C@@H]1/C=C(\C)C[C@H](C)C[C@H](OC)[C@H]2O[C@@](O)(C(=O)C(=O)N3CCCC[C@H]3C(=O)O[C@H](/C(C)=C/[C@@H]3CC[C@@H](O)[C@H](OC)C3)[C@H](C)[C@@H](O)CC1=O)[C@H](C)C[C@@H]2OC` [TC, Tacrolimus], for which the “Stability in aqueous formulations” value in series [2] is “approx. 90 days”. Moreover, the “Preservation of API content, pressurized cans versus conventional storing units (glass vials)” value in series [3] (2-8° C.) is recorded as “better”. Moreover, the TC content entry in series [3] (after 36 months storage at 2-8° C.) is “at least 90%”. Further, the “octanol-water partition coefficient (log P)” value in series [4] was over 3.
